According to ChEMBL document CHEMBL4507270 (2021):

Key:
[1] = molecular target: Atypical kinase COQ8A, mitochondrial (Homo sapiens) (UniProt Q8NI60)
[2] = molecular target: Tyrosine-protein kinase Fer (Homo sapiens) (UniProt P16591)
[3] = molecular target: NUAK family SNF1-like kinase 1 (Homo sapiens) (UniProt O60285)
[4] = molecular target: Dual specificity protein kinase TTK (Homo sapiens) (UniProt P33981)
[5] = molecular target: Wee1-like protein kinase 2 (Homo sapiens) (UniProt P0C1S8)
[6] = molecular target: 5-hydroxytryptamine receptor 5A (Homo sapiens) (UniProt P47898); conditions: Compound concentration 10.0 uM
[7] = molecular target: Cyclin-dependent kinase-like 5 (Homo sapiens) (UniProt O76039)
[8] = molecular target: Death-associated protein kinase 1 (Homo sapiens) (UniProt P53355)
[9] = molecular target: TRAF2 and NCK-interacting protein kinase (Homo sapiens) (UniProt Q9UKE5)
[10] = molecular target: Serine/threonine-protein kinase MRCK gamma (Homo sapiens) (UniProt Q6DT37)
[11] = system: Tyrosine-protein kinase ABL1 (Homo sapiens), P00519 [M351T]
[12] = molecular target: SRSF protein kinase 3 (Homo sapiens) (UniProt Q9UPE1)
[13] = molecular target: Insulin receptor (Homo sapiens) (UniProt P06213)
[14] = molecular target: Serine/threonine-protein kinase TAO2 (Homo sapiens) (UniProt Q9UL54)
[15] = system: eIF-2-alpha kinase GCN2 (Homo sapiens), Q9P2K8 [S808G]
[16] = molecular target: Serine/threonine-protein kinase 38 (Homo sapiens) (UniProt Q15208)
[17] = molecular target: Dual specificity testis-specific protein kinase 1 (Homo sapiens) (UniProt Q15569)
[18] = molecular target: Phosphatidylinositol 4-phosphate 3-kinase C2 domain-containing subunit beta (Homo sapiens) (UniProt O00750)
[19] = molecular target: Dual specificity mitogen-activated protein kinase kinase 5 (Homo sapiens) (UniProt Q13163)
[20] = molecular target: Serine/threonine-protein kinase 10 (Homo sapiens, UniProt O94804)
[21] = system: Receptor-type tyrosine-protein kinase FLT3 (Homo sapiens), P36888 [R834Q]
[22] = molecular target: Interferon-induced, double-stranded RNA-activated protein kinase (Homo sapiens) (UniProt P19525)
[23] = molecular target: Serine/threonine-protein kinase PknB (Mycobacterium tuberculosis) (UniProt P9WI81)
[24] = molecular target: Calcium/calmodulin-dependent protein kinase type 1B (Homo sapiens) (UniProt Q6P2M8)
[25] = molecular target: NUAK family SNF1-like kinase 2 (Homo sapiens) (UniProt Q9H093)
[26] = molecular target: 5-hydroxytryptamine receptor 1A (Homo sapiens) (UniProt P08908); conditions: Compound concentration 10.0 uM
[27] = molecular target: Tyrosine-protein kinase JAK3 (Homo sapiens) (UniProt P52333)
[28] = molecular target: Serine/threonine-protein kinase Nek10 (Homo sapiens) (UniProt Q6ZWH5)
[29] = system: Phosphatidylinositol 4,5-bisphosphate 3-kinase catalytic subunit alpha isoform (Homo sapiens), P42336 [E545K]
[30] = molecular target: Receptor tyrosine-protein kinase erbB-2 (Homo sapiens) (UniProt P04626)
[31] = molecular target: Serine/threonine-protein kinase 38-like (Homo sapiens) (UniProt Q9Y2H1)
[32] = molecular target: BDNF/NT-3 growth factors receptor (Homo sapiens) (UniProt Q16620)
[33] = molecular target: Mast/stem cell growth factor receptor Kit (Homo sapiens) (UniProt P10721)
[34] = molecular target: Serine/threonine-protein kinase PAK 1 (Homo sapiens) (UniProt Q13153)
[35] = molecular target: Serine/threonine-protein kinase LATS2 (Homo sapiens) (UniProt Q9NRM7)
[36] = system: Proto-oncogene tyrosine-protein kinase receptor Ret (Homo sapiens), P07949 [V804M]
[37] = molecular target: Serine/threonine-protein kinase SIK1 (Homo sapiens) (UniProt P57059)
[38] = molecular target: Casein kinase I isoform gamma-2 (Homo sapiens) (UniProt P78368)
[39] = molecular target: Tyrosine-protein kinase Fes/Fps (Homo sapiens) (UniProt P07332)
[40] = molecular target: AP2-associated protein kinase 1 (Homo sapiens) (UniProt Q2M2I8)
[41] = molecular target: Transient receptor potential cation channel subfamily M member 6 (Homo sapiens) (UniProt Q9BX84)
[42] = molecular target: Cyclin-dependent kinase 4 (Homo sapiens) (UniProt P11802)
[43] = molecular target: Mitogen-activated protein kinase kinase kinase 13 (Homo sapiens) (UniProt O43283)
[44] = molecular target: Focal adhesion kinase 1 (Homo sapiens) (UniProt Q05397)
[45] = molecular target: Mitogen-activated protein kinase kinase kinase 5 (Homo sapiens) (UniProt Q99683)
[46] = Compound concentration 1000.0 nM
[47] = Compound concentration 100.0 nM

Atypical kinase COQ8A, mitochondrial (Homo sapiens), sequence (Q8NI60 163-647 limits assumed): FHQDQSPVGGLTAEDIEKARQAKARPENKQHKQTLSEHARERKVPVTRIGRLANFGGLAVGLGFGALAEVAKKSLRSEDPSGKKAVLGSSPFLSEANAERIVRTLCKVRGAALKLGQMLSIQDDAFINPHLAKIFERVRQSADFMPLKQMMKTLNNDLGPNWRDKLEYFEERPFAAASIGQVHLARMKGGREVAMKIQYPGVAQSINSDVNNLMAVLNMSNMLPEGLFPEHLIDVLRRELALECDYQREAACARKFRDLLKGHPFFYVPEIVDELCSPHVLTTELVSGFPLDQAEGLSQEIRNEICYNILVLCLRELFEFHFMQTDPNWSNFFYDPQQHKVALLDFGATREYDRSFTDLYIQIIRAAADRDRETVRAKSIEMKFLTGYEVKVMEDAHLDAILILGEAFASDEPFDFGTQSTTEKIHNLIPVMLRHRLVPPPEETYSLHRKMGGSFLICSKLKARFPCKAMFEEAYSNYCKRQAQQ
BDNF/NT-3 growth factors receptor (Homo sapiens), sequence (Q16620 32-822 limits assumed): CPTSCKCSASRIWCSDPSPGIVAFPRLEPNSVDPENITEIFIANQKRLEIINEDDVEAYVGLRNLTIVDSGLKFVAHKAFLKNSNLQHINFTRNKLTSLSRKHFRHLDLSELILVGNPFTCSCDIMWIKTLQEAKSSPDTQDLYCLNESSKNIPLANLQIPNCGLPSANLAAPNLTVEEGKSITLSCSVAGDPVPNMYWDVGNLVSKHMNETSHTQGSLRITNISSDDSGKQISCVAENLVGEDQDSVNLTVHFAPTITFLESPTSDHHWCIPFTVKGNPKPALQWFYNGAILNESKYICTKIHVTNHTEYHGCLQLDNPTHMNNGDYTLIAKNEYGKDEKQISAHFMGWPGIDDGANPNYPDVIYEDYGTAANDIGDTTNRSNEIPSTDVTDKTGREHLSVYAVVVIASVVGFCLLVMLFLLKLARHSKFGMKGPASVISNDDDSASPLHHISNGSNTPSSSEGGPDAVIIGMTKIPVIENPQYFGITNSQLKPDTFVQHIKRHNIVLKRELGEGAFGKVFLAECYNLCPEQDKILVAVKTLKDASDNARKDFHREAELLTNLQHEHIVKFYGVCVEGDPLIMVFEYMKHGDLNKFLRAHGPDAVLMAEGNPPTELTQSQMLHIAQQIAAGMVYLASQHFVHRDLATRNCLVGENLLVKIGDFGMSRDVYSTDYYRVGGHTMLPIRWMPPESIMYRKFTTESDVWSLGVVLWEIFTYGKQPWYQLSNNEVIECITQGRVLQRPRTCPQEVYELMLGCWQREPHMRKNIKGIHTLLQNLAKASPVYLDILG
Insulin receptor (Homo sapiens), sequence (P06213 28-758 limits assumed): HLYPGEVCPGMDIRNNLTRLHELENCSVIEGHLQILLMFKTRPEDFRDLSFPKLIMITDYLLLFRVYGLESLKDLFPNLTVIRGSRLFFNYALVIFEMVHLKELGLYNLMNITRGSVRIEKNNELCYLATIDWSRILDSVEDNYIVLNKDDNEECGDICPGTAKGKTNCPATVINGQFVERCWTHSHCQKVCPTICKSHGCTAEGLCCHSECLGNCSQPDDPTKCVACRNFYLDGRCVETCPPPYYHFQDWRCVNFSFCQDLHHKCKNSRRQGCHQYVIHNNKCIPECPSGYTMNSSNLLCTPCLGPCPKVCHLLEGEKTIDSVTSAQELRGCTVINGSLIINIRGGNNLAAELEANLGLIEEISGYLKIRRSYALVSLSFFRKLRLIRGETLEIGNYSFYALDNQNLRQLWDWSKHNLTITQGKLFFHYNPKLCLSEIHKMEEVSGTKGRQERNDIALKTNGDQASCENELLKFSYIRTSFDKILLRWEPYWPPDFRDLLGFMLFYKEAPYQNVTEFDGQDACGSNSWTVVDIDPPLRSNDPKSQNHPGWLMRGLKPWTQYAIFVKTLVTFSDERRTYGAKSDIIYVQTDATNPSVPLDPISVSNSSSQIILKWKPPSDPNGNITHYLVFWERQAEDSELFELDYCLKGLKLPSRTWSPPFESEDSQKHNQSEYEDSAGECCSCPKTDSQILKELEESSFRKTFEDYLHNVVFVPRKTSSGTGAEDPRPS
Insulin receptor (Homo sapiens), sequence (P06213 763-1382 limits assumed): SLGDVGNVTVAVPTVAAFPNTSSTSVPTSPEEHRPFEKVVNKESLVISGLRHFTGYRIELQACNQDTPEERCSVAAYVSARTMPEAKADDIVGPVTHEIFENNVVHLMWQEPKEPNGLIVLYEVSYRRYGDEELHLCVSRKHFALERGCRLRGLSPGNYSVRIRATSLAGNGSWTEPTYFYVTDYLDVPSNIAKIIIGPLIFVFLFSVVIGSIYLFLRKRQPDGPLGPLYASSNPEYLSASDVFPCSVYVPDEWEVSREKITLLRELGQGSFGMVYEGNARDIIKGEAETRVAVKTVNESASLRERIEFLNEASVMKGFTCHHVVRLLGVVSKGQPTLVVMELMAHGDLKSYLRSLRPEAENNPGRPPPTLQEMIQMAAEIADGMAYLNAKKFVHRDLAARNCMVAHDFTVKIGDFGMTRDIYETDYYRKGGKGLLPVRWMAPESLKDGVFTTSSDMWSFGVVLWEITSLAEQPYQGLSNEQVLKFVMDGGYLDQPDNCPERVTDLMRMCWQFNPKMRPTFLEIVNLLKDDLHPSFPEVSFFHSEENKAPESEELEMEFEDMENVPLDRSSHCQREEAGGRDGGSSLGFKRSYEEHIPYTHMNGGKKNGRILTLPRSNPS
Mitogen-activated protein kinase kinase kinase 13 (Homo sapiens), sequence (O43283 whole entry): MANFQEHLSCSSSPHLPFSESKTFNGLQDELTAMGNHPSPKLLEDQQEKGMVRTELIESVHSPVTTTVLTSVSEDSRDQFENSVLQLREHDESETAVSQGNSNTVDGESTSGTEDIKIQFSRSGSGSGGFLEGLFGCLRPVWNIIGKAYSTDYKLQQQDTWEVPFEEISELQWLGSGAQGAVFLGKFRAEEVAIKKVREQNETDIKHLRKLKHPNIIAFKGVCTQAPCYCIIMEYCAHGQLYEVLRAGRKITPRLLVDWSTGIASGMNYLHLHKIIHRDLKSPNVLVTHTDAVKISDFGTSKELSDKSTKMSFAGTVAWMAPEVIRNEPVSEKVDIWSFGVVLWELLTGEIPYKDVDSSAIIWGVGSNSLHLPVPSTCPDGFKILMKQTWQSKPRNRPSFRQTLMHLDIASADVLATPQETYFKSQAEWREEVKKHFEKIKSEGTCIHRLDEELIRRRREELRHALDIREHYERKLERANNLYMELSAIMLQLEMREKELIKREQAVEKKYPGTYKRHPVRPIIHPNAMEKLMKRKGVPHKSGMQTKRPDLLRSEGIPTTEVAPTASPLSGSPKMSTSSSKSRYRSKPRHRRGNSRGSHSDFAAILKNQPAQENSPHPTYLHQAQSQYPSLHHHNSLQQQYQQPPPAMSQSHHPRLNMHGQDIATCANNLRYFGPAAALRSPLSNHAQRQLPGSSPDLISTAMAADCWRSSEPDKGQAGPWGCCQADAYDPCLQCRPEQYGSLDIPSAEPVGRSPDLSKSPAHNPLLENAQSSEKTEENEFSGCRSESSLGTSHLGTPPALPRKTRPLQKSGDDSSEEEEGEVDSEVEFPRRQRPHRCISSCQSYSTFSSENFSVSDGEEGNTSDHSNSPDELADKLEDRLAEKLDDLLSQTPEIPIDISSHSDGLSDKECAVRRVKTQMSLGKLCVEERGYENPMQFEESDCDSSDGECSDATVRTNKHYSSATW
TRAF2 and NCK-interacting protein kinase (Homo sapiens), sequence (Q9UKE5 whole entry, looked up): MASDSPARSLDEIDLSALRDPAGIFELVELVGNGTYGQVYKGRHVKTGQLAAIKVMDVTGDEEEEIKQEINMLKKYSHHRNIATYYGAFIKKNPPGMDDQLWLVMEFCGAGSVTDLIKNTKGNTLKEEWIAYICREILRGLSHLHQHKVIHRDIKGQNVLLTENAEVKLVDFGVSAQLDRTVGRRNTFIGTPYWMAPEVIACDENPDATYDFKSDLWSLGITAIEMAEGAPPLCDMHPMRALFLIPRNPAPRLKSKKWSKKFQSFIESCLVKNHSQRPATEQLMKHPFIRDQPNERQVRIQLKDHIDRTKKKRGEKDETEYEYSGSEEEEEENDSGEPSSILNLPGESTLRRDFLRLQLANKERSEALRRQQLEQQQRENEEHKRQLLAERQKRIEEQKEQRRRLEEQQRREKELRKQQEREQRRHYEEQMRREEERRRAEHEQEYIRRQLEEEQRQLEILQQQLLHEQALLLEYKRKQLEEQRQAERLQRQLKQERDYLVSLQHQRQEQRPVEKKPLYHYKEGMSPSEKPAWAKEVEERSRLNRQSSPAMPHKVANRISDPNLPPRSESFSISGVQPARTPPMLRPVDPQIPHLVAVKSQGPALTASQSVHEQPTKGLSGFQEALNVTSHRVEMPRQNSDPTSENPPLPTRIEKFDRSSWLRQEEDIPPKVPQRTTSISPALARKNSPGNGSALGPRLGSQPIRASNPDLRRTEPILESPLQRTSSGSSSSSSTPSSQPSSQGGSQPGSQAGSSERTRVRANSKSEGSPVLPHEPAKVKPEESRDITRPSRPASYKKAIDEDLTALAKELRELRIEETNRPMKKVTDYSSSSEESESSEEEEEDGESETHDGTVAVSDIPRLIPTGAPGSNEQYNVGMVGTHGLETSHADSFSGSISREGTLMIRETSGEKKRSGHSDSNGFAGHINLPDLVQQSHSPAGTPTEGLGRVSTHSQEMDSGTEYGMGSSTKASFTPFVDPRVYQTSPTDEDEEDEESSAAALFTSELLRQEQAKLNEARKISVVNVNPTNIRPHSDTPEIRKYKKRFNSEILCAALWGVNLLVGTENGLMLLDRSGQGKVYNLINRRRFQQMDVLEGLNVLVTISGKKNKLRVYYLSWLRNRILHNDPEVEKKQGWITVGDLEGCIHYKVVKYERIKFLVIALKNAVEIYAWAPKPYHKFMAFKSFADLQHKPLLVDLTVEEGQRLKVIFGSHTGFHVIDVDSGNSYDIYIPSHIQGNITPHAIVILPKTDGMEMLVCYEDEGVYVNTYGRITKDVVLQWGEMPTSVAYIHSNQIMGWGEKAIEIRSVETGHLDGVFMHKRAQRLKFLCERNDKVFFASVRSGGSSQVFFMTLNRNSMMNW

## Cc1cc(NC(=O)c2cccc(S(F)(F)(F)(F)F)c2)cc(-n2ccn3nc(-c4cccnc4)cc23)c1 [BAY-309]
[1]; [46]
  residual activity: 82.8%
[2]; [46]
  residual activity: 59.4%
[3]; [46]
  residual activity: 51.3%
[4]; [46]
  residual activity: 44.8%
[5]; [46]
  residual activity: 100%
[6]
  inhibition: -4.71%
[7]; [46]
  residual activity: 100%
[8]; [46]
  residual activity: 100%
[9]; [46]
  residual activity: 100%
[10]; [46]
  residual activity: 100%
[11]; [46]
  residual activity: 70.3%
[12]; [46]
  residual activity: 100%
[13]; [46]
  residual activity: 100%
[14]; [46]
  residual activity: 91.3%
[15]; [46]
  residual activity: 100%
[16]; [46]
  residual activity: 92.3%
[17]; [46]
  residual activity: 91.7%
[18]; [46]
  residual activity: 100%
[19]; [46]
  residual activity: 35.9%
[20]; [46]
  residual activity: 26.8%
[21]; [46]
  residual activity: 100%
[22]; [46]
  residual activity: 72.7%
[23]; [46]
  residual activity: 63.7%
[24]; [46]
  residual activity: 100%
[25]; [46]
  residual activity: 100%
[26]
  inhibition: 39.9%
[27]; [46]
  residual activity: 96.9%
[28]; [46]
  residual activity: 37.6%
[29]; [46]
  residual activity: 72.5%
[30]; [46]
  residual activity: 100%
[31]; [46]
  residual activity: 100%
[32]; [46]
  residual activity: 40%
[33]; [46]
  residual activity: 70.3%
[34]; [46]
  residual activity: 90.9%
[35]; [46]
  residual activity: 100%
[36]; [46]
  residual activity: 74.2%
[37]; [46]
  residual activity: 100%
[38]; [46]
  residual activity: 95.4%
[39]; [46]
  residual activity: 100%
[40]; [46]
  residual activity: 100%
[41]; [46]
  residual activity: 97%
[42]; [46]
  residual activity: 79.3%
[43]; [46]
  residual activity: 100%
[44]; [46]
  residual activity: 96.4%
[45]; [46]
  residual activity: 100%

## Cc1cc(C)c(-n2ccn3nc(-c4cccnc4)cc23)cc1NC(=O)c1cc(C#N)cc(S(F)(F)(F)(F)F)c1 [BAY-826]
[1]; [47]
  residual activity: 94.5%
[2]; [47]
  residual activity: 100%
[3]; [47]
  residual activity: 100%
[4]; [47]
  residual activity: 72%
[5]; [47]
  residual activity: 77.4%
[6]
  inhibition: 9.57%
[7]; [47]
  residual activity: 100%
[8]; [47]
  residual activity: 94.1%
[9]; [47]
  residual activity: 97.4%
[10]; [47]
  residual activity: 88.8%
[11]; [47]
  residual activity: 82.6%
[12]; [47]
  residual activity: 100%
[13]; [47]
  residual activity: 69%
[14]; [47]
  residual activity: 48.2%
[15]; [47]
  residual activity: 100%
[16]; [47]
  residual activity: 80.4%
[17]; [47]
  residual activity: 85.1%
[18]; [47]
  residual activity: 93.4%
[19]; [47]
  residual activity: 91.8%
[20]; [47]
  residual activity: 1.8%
[21]; [47]
  residual activity: 62.3%
[22]; [47]
  residual activity: 96.4%
[23]; [47]
  residual activity: 62.5%
[24]; [47]
  residual activity: 83.6%
[25]; [47]
  residual activity: 86.1%
[26]
  inhibition: -6.68%
[27]; [47]
  residual activity: 95.3%
[28]; [47]
  residual activity: 100%
[29]; [47]
  residual activity: 77.8%
[30]; [47]
  residual activity: 84.2%
[31]; [47]
  residual activity: 98.9%
[32]; [47]
  residual activity: 54.8%
[33]; [47]
  residual activity: 76.8%
[34]; [47]
  residual activity: 82.2%
[35]; [47]
  residual activity: 73.2%
[36]; [47]
  residual activity: 94.5%
[37]; [47]
  residual activity: 86.3%
[38]; [47]
  residual activity: 77.6%
[39]; [47]
  residual activity: 84.6%
[40]; [47]
  residual activity: 95.9%
[41]; [47]
  residual activity: 80.2%
[42]; [47]
  residual activity: 82.4%
[43]; [47]
  residual activity: 97.9%
[44]; [47]
  residual activity: 100%
[45]; [47]
  residual activity: 100%
